Test results as given in patent publication US8318768B2, “Bronchodilating alpha, beta-unsaturated isoquinoline amides” (Respiratorius AB, priority 2007, dated 2012).

Experiments:
Assay type in all cases: cell-based
MCP-1 = experiment: Human PBMC in vitro model, MCP-1 production (Luminex-based assay); conditions: compound 10 μM or dexamethasone 1 μM, 24 h supernatant
Protocol: (§1) Cryopreserved PBMC's (SeraCare, # 72001) were thawed, washed with culture media (RPMI-1640 from Invitrogen, # 61870-036+10% heat inactivated fetal bovine serum from Invitrogen, # 10082-147+100 U/ml penicillin+[…] streptomycin) and tested for viability using Trypan blue (PBMC viability=96%). Cells were then resuspended to 1×10^6 cells/ml in culture media and 0.5 ml was plated into 24 well culture plates (5×10^5 cells/well) before incubation for 30 minutes at 37° C. with 5% CO2 prior to addition of a compound of the present invention (10 μM) or dexamethasone (1 μM). One hour thereafter, LPS (0.1 μg/ml, Salmonella abortus equi, Sigma, # L1887) was added and the cells were incubated for another 24 h before collection of the cell culture supernatants, which were assayed for the presence of MCP-1 and LTB4.
MCP-1 levels were quantified employing a Luminex-based assay according the manufacturer's instructions. Data was collected using a Luminex 100 (Luminex Corporation, Austin, Tex.). Standard curves were generated using a 5-parameter logistic curve fitting equation weighted by 1/y (StarStation V 2.0; Applied Cytometry Systems, Sacramento, Calif.). Each sample reading was interpolated from the appropriate standard curve. Calculated concentrations were multiplied by the appropriate dilution factor when necessary.
(§2) The inhibitory effect of compounds of the present invention, dexamethasone, and vehicle on production of MCP-1 and LTB4 in the PBMC model as described herein above, with (+LPS) or without (−LPS) LPS-induced mediator production, is tabulated below.

LTB4 = experiment: Human PBMC in vitro model, LTB4 production (ELISA); conditions: compound 10 μM or dexamethasone 1 μM, 24 h supernatant
Protocol: as §1
LTB4 levels were quantified by ELISA following the manufacturer's instructions. Absorbance readings were detected using a ThermoMax microplate reader (Molecular Devices). Standard curves were generated using a 4-parameter logistic curve fitting equation (SoftMax Pro 4.7.1; Molecular Devices). Each sample reading was interpolated from the appropriate standard curve. Duplicate interpolated sample values were averaged and standard deviations were calculated. Calculated concentrations were multiplied by the appropriate dilution factor.
as §2

human bronchiols [1] = experiment: Leukotriene D4 induced contraction of human bronchiols, in vitro model (Biological Example 1); conditions: pre-treatment with compound 10 μM, Leukotriene D4 (10 nM) induced contraction, read-out: Remaining contraction (%)
Protocol: (§3) The usefulness of the compounds, as defined in the preceding embodiments, in treating, pretreating, revoking, mitigating, alleviating and/or preventing a condition of the respiratory apparatus characterized by bronchoconstriction, were evaluated in a complex and relevant in vitro model. The in vitro model was in accordance with the in vitro model disclosed in US 2006-0040254 A1 and by Skogvall, S., Berglund, M., Dalence-Guzman, M. F., Svensson, K., Jonsson, P., Persson, C. G. A and Sterner, O., in Pulmonary Pharmacology and Therapeutics, vol 20:3, 2007, p. 273-280. All references disclosed herein are hereby incorporated in their entirety by reference.
(§4) In short, lung tissue was obtained from patients undergoing lobectomia or pulmectomia due to lung carcinoma. From the bronchus of this tissue were rectangular oblong preparations obtained. The contraction induced by inflammatory mediators, such as Leukotriene D4, histamine, prostaglandin D2 or acetylcholine, in the presence and absence of the compound to be evaluated, were compared.
The remaining contraction, after pre-treatment with various compound examples at a concentration of 10 μM, of human bronchiols after Leukotriene D4 (10 nM) induced contraction according to the in vitro method described herein above are tabulated below.

human bronchiols [2] = experiment: Contraction of human bronchiols induced by acetylcholine, carbachol, histamine, methacholine or a mixture (Biological Example 2); conditions: compound 10 μM
Protocol: as §3, §4
(§5) The remaining contraction, after pre-treatment with various compound examples at a concentration of 10 μM, of human bronchiols or rat bronhi after the induction of contraction by treatment with the contractile agents acetylcholine (100 uM), carbachol (10 uM), histamine (100 uM), methacholine (100 uM) or a mixture of acetylcholine (100 uM), leukotriene D4 (LTD4) (0.01 uM) and histamine (100 uM), according to the in vitro method described herein above, are tabulated below: […]

rat bronhi = experiment: Contraction of rat bronchi induced by acetylcholine, carbachol or methacholine (Biological Example 2); conditions: compound 10 μM
Protocol: as §3, §4, §5

[3] = Mixture of Acetylcholine (100 uM), LTD4 (0.01 uM) and histamine (100 uM)

In the case of C[C@@H]1C[C@H]2[C@@H]3CCC4=CC(=O)C=C[C@]4(C)[C@@]3(F)[C@@H](O)C[C@]2(C)[C@@]1(O)C(=O)CO [Dexamethasone, reference compound], the “Mean MCP-1” value (MCP-1; with LPS 0.1 μg/ml (+LPS)) is reported as 1425.6 pg/mL, the “Mean MCP-1” value (MCP-1; without LPS (−LPS)) is reported as 0 pg/mL and the “Mean LTB-4” value (LTB4; with LPS 0.1 μg/ml (+LPS)) is reported as 12.6 pg/mL. The “Mean LTB-4” value (LTB4; without LPS (−LPS)) was 2.7 pg/mL.
Work on O=C(/C=C/c1ccccc1)N1CCc2c(Cl)c(O)c(O)c(Cl)c2C1 [Example 1, (E)-1-(5,8-dichloro-6,7-dihydroxy-3,4-dihydroisoquinolin-2(1H)-yl)-3-phenylprop-2-en-1-one] yielded an activity at 10 µM (human bronchiols [1]) of 41%.
With O=C(/C=C/c1ccc(F)cn1)N1CCc2c(Cl)c(O)c(O)c(Cl)c2C1 [Example 3, (E)-1-(5,8-dichloro-6,7-dihydroxy-3,4-dihydroisoquinolin-2-(1H)-yl)-3-(5-fluoropyridin-2-yl)prop-2-en-1-one] the activity at 10 µM (human bronchiols [1]) was 24% and the “REMAINING CONTRACTION (%)” value (human bronchiols [2]; [3]) was 43%.
With C/C(=C\C(=O)N1CCc2c(Cl)c(O)c(O)c(Cl)c2C1)c1ccc(C(F)(F)F)nc1 [Example 13] the “Mean MCP-1” value (MCP-1; with LPS 0.1 μg/ml (+LPS)) was 256.7 pg/mL, the “Mean MCP-1” value (MCP-1; without LPS (−LPS)) was 217.1 pg/mL and the “REMAINING CONTRACTION (%)” value (rat bronhi; Acetylcholine (100 uM)) was 52%. For the same molecule, the activity at 10 µM (human bronchiols [1]) was 7%, the “Mean LTB-4” value (LTB4; with LPS 0.1 μg/ml (+LPS)) was 9.8 pg/mL and the “Mean LTB-4” value (LTB4; without LPS (−LPS)) was 4.3 pg/mL. For the same molecule, the “REMAINING CONTRACTION (%)” value (human bronchiols [2]; Acetylcholine (100 uM)) was 7%, the “REMAINING CONTRACTION (%)” value (human bronchiols [2]; Histamine (100 uM)) was 3% and the “REMAINING CONTRACTION (%)” value (human bronchiols [2]; [3]) was 18%.
Molecule O=C(/C=C\c1ccccc1O)N1CCc2c(Cl)c(O)c(O)c(Cl)c2C1 [Example 7, (Z)-1-(5,8-dichloro-6,7-dihyroxy-3,4-dihydroisoquinolin-2(1H)-yl)-3-(2-hydroxyphenyl)prop-2-en-1-one] has an activity at 10 µM (human bronchiols [1]) of 71%.
In the case of C/C(=C\C(=O)N1CCc2c(Cl)c(O)c(O)c(Cl)c2C1)c1ccc(F)cn1 [Example 8, (E)-1-(5,8-dichloro-6,7-dihydroxy-3,4-dihydroisoquinolin-2(1H)-yl)-3-(5-fluoropyridin-2-yl)but-2-en-1-one], the activity at 10 µM (human bronchiols [1]) is reported as 76%.
For O=C(/C=C/c1cccnc1)N1CCc2c(Cl)c(O)c(O)c(Cl)c2C1 [Example 2, (E)-1-(5,8-dichloro-6,7-dihydroxy-3,4-dihydroisoquinolin-2(1H)-yl)-3-(pyridin-3-yl)prop-2-en-1-one], the activity at 10 µM (human bronchiols [1]) was 44%.
With O=C(/C=C/c1ccc(C(F)(F)F)nc1)N1CCc2c(Cl)c(O)c(O)c(Cl)c2C1 [Example 12, (E)-1-(5,8-dichloro-6,7-dihydroxy-3,4-dihydroisoquinolin-2(1H)-yl)-3-(6-(trifluoromethyl)pyridin-3-yl)prop-2-en-1-one] the “Mean MCP-1” value (MCP-1; with LPS 0.1 μg/ml (+LPS)) was 303.1 pg/mL, the “Mean MCP-1” value (MCP-1; without LPS (−LPS)) was 229.7 pg/mL and the “REMAINING CONTRACTION (%)” value (rat bronhi; Acetylcholine (100 uM)) was 40%. For the same molecule, the “REMAINING CONTRACTION (%)” value (rat bronhi; Carbachol (10 uM)) was 27%, the “REMAINING CONTRACTION (%)” value (rat bronhi; Methacholine (100 uM)) was 49% and the activity at 10 µM (human bronchiols [1]) was 6%. The “Mean LTB-4” value (LTB4; with LPS 0.1 μg/ml (+LPS)) was 9.9 pg/mL, the “Mean LTB-4” value (LTB4; without LPS (−LPS)) was 3.9 pg/mL and the “REMAINING CONTRACTION (%)” value (human bronchiols [2]; Acetylcholine (100 uM)) was 4%. The “REMAINING CONTRACTION (%)” value (human bronchiols [2]; Carbachol (10 uM)) was 10%, the “REMAINING CONTRACTION (%)” value (human bronchiols [2]; Histamine (100 uM)) was 1% and the “REMAINING CONTRACTION (%)” value (human bronchiols [2]; Methacholine (100 uM)) was 7%. For the same molecule, the “REMAINING CONTRACTION (%)” value (human bronchiols [2]; [3]) was 12%.
With Cc1nc(C(F)(F)F)ccc1/C=C/C(=O)N1CCc2c(Cl)c(O)c(O)c(Cl)c2C1 [Example 11, (E)-1-(5,8-dichloro-6,7-dihydroxy-3,4-dihydroisoquinolin-2(1H)-yl)-3-(2-methyl-6-(trifluoromethyl)pyridin-3-yl)prop-2-en-1-one] the activity at 10 µM (human bronchiols [1]) was 9% and the “REMAINING CONTRACTION (%)” value (human bronchiols [2]; [3]) was 25%.
Cc1c(O)c(O)c(C)c2c1CCN(C(=O)/C=C/c1ccc(C(F)(F)F)nc1)C2 [Example 9, (E)-6,7-dihydroxy-5,8-dimethyl-1,2,3,4-tetrahydroisoquinoline 3-(6-(trifluoromethyl)pyridin-3-yl)acrylamide] was tested, and the activity at 10 µM (human bronchiols [1]) was 75%.
C/C(=C\C(=O)N1CCc2c(Cl)c(O)c(O)c(Cl)c2C1)c1cnc2ccccc2c1 [Example 5, (E)-1-(5,8-dichloro-6,7-dihydroxy-3,4-dihydroisoquinolin-2(1H)-yl)-3-(quinolin-3-yl)but-2-en-1-one] showed an activity at 10 µM (human bronchiols [1]) of 31%.
